Read-outs that look alike come from different tables or passages of the source.
What was measured:
[1] = test system: Mesencephalic dopaminergic neuron cultures; assay: dopaminergic (3H-dopamine) uptake assay after MPP+ exposure; assay type: cell-based; conditions: rat E15 mesencephalic dopaminergic neurons, read-out: EC50 in dopaminergic uptake assays
Procedure: Mesencephalic dopaminergic neuron cultures were prepared as described in Pong et al., J. Neurochem. 69: 986-994, 1997, which is incorporated herein by reference in its entirety. Embryonic day 15 (E15) rat fetuses were collected and dissected in ice-cold phosphate-buffered saline (PBS). The ventral piece of tissue compromising the mesencephalic dopaminergic region was dissected out. Dissected pieces of tissue were pooled together and transferred to an enzymatic dissociation medium containing 20 IU/mL papain in Earle's balanced salt solution (Worthington Biochemical, Freehold, N.J., USA) and incubated for 60 minutes at 37° C. After enzymatic dissociation, the papain solution was aspirated and the tissue mechanically triturated with a fire-polished glass Pasteur pipette in complete medium (equal volumes of minimum essential medium (MEM) and F-12 nutrient mixture (GibcoBRL) supplemented with 0.1 mg/mL apotransferrin and 2.5 μg/mL insulin) containing 2,000 IU/mL DNase and 10 mg/mL ovomucoid protease inhibitor.
For dopamine uptake experiments, single-cell suspensions in complete media were seeded on poly-L-ornithine and laminin coated 24-well plates. The cultures were maintained for seven days prior to experimentation. Cultures were pretreated with various concentrations of the compound for 24 hours, then exposed to 10 mM MPP+ for 1 hour. Following the 1 hour incubation, media was exchanged three times and fresh compound was added for an additional 48 hours.
After 48 hours growth of mesencephalic dopaminergic neuron cultures following MPP+ exposure, high-affinity 3H-dopamine uptake was performed using a modified method described by Prochiantz et al., Nature 293: 570-572, 1981, which is incorporated herein by reference. Cultures were washed with pre-warmed PBS containing 5.6 mM glucose and 1 mM ascorbic acid. Cultures were then incubated for 15 minutes at 37° C. with 50 nM 3H-dopamine (31 Ci/mmol, DuPont-NEN, Wilmington, Del., USA). The cultures were washed twice with buffer and lysed with 0.5 N NaOH. The lysate was transferred to a scintillation vial containing Ultima Gold scintillation cocktail and radioactivity was determined with a liquid scintillation counter. Alternatively, culture lysates can be washed twice with buffer, incubated for 2 hours at room temperature with Optiphase Supermix scintillation cocktail (Wallac Scintillation Products, Gaithersburg, Md., USA), and radioactivity measured with a liquid scintillation counter.

[2] = test system: Dissociated cortical neuron cultures; assay: cortical neuron assay (neurite outgrowth); assay type: cell-based; conditions: Cortical neurone, rat E15 cortical neurons, compound for 72 hours, read-out: EC50 in cortical neuron assays
Procedure: Dissociated cortical neuron cultures were prepared as previously described (Pong et al., 2001). Briefly, embryonic day 15 rat fetuses were collected and dissected in ice-cold PBS. Dissected cortices were pooled together and transferred to an enzymatic dissociation medium containing papain. After 30 minutes, the tissue was mechanically triturated with a fire-polished glass Pasteur pipette. Single-cell suspensions in complete media were seeded on poly-L-ornithine and laminin coated 96-well plates. After 24 hours, cultures were treated with various concentrations of compound for 72 hours. The cultures were then fixed and stained with an anti-tubulin primary antibody (TUJ-1) and a fluorescent-tagged secondary antibody. Neurite outgrowth was determined by using the Enhanced Neurite Outgrowth (ENO) algorithm with the Cellomics ArrayScan and expressed as average neurite length or total neurite length per cell.

rats following pMCAO = assay: Permanent occlusion of middle cerebral artery (pMCAO), behavioral deficit scoring; assay type: in vivo, rat; conditions: I.V. administration (10 mg/kg) following pMCAO
Procedure: Adult male Wistar rats (Charles River, Wilmington, Mass.) 270-300 g were anesthetized with 3% isoflurane in 70% nitrous oxide and 30% oxygen through a nose cone. Temperature was maintained at 37° C. throughout the surgery using a heating lamp. Permanent occlusion of MCAO was induced by electro cauterization of the distal portion of the MCA (via a craniotomy) with a 90 min ligation of both carotid arteries to interrupt collateral circulation (Chen S T, Hsu C Y, Hogan E L, Maricq H Balentine J D (1986) A model of focal ischemic stroke in the rat: reproducible extensive cortical infarction. Stroke 17:738-743). Compound was administered 10 mg/kg i.v. 1.5, 5.5, 24, 48, and 72 hours post ischemia. Rats were kept for 21 day for long-term functional recovery evaluation. […] Rats extending both forelimbs toward the table were scored as 0, flexing contralateral limb toward the body and/or rotating the contralateral shoulder and limb medially were scored as 1, and rolling up the body toward the contralateral side and attempting to grasp the tail were scored as 2. […] Rats retracting hind limb back on bench top immediately were scored as 0, delaying (>2 seconds) were scored as 1, and unable to retract hind limb were score as 2. […]

[3] = test system: Spinal cord neuron cultures; assay: spinal cord neuron assay; assay type: cell-based; conditions: rat E15 spinal cord neurons, compound for 72 h, read-out: EC50 in spinal cord neuron assays
Procedure: Spinal cord neuron cultures were prepared from embryonic day 15 (E15) rat embryos (Sprague-Dawley, Charles River Laboratories, Wilmington, Mass.). The embryos were collected and their spinal cords were removed in ice-cold phosphate-buffered saline (PBS) without Ca^2+ and Mg^2+. Dissected pieces of spinal cord tissue were pooled together and transferred to an enzymatic dissociation media containing 20 IU/mL papain in Earle's balanced salt solution (Worthington Biochemical, Freehold, N.J.) and incubated for 30 minutes at 37° C. After enzymatic dissociation, the papain solution was aspirated and the tissue mechanically triturated with a fire-polished Pasteur pipette in complete media [Neurobasal Medium with B-27 supplement (Gibco, Grand Island, N.Y.), 100 IU/mL penicillin, 100 μg/mL streptomycin, 3.3 μg/mL aphidicolin, 0.5 mM glutamate] containing 2,000 IU/mL DNase and 10-mg/mL ovomucoid protease inhibitor. Single-cell suspensions in complete media were plated on pre-coated poly-L-ornithine/laminin 96-well plates (Becton-Dickinson, Bedford, Mass.) at a density of 1.0×10^4 cells/well. Spinal cord neurons were maintained for 24 h then exposed to vehicle or various concentrations of compound for 72 h.

human CD4+ T cells [4] = assay: PMA/ionomycin activation assay; assay type: cell-based; conditions: CD4+ T cells stimulated with PMA and ionomycin, tritiated thymidine incorporation, read-out: EC50, inhibition of proliferation
Procedure: (§1) In the following assays, human CD4+ T cells were purified by negative selection from peripheral blood lymphocytes using RosetteSep as per manufacture's instructions (StemCell Technologies, Inc. Vancouver, British Columbia).
Proliferation of the compounds was determined using this assay. CD4+ T cells (5×10^5 cells/well) were plated in flat bottomed 96 well microtiter plates in RPMI, 10% fetal calf serum, 2 mM glutamine media and stimulated with PMA (10 ng/mL) and ionomycin (200 ng/mL) in the presence of increasing concentration of compound. Seventy-two hours after activation, 100 μL of culture media was collected for IL-2 determination, an additional 100 μL fresh media was added to each well and cultures labeled with tritiated thymidine (1 μCi/well) for 6 hours. Cultures were harvested and tritiated thymidine incorporation (count per minute, CPM) assessed using a Trilux (Perkin Elmer, Shelton, Conn.). IL-2 production was determined using an ELISA as per manufacture's instructions (R&D Systems, Minneapolis, Minn.).

human CD4+ T cells [5] = assay: Anti-CD3/-CD28 stimulation and IL-2 re-stimulation assay; assay type: cell-based
Procedure: as §1
Tosyl-activated magnetic microspheres (Dynal, Great Neck, N.Y.) were coated with anti-CD3 Ab (1 μg/10^7 microspheres), and anti-CD28Ab (0.5 μg/10^7 microspheres) as described in Blair et al. J. Immunol., 160:12, 1998. Murine IgG was used to saturate the binding capacity of the microspheres (total protein=5 μg/10^7 microspheres). Protein-coated microspheres were added to purified CD4+ T cells (2×10^6 cells/mL, ratio 1 bead: 1 cell) and activated for 72 hours in RPMI, 10% fetal calf serum, 2 mM glutamine media. Cells were harvested, washed, and cultured overnight in fresh media and re-stimulated with IL-2 as described in Bennett et al., J. Immunol. 170:711, 2003. Briefly, overnight rested cells were recounted, plated (10^5 cells/well) in flat-bottomed 96 well microtiter plates and stimulated with 1 ng/mL human IL-2 (R&D Systems, Minneapolis, Minn.) in the presence of increasing concentrations of compound. Seventy-two hours after culture re-stimulation, plates were pulsed with 1 μCi/well tritiated thymidine and incubated for a 6-16 hour period.

EC50 ([1]; Neuron) | EC50 [3] | Compound | EC50 [2] | other results
< 1 µM | < 1 µM | CO[C@H]1C[C@@H]2CC[C@@H](C)[C@@](O)(O2)C(=O)C(=O)N2CCCC[C@H]2C(=O)O[C@H]([C@H](C)C[C@@H]2CC[C@@H](OC(=O)C(C)(C)Cc3ccccn3)[C@H](OC)C2)CC(=O)[C@H](C)/C=C(\C)[C@@H](O)[C@@H](OC)C(=O)[C@H](C)C[C@H](C)C2C=CC(/C=C/1C)ON2c1ccccc1 [Example 6, 9,27-dihydroxy-3-{-2-[4-hydroxy-3-methoxycyclohexyl]-1-methylethyl}-10,21-dimethoxy-6,8,12,14,20,26-hexamethyl-37-phenyl-4,9,10,12,13,14,15,18,21,22,23,24,25,26,27,32,33,34,34a-nonadecahydro-3H-23,27-epoxy-18,15-(epoxyimino)pyrido[2,1-c][1,4]oxazacyclohentriacontine-1,5,11,28,29(6H,31H)-pentone ester with-2,2-dimethyl-3-(pyridin-2-yl)-propionic acid] |  | 
> 1 µM |  | CO[C@H]1C[C@@H]2CC[C@@H](C)[C@@](O)(O2)C(=O)C(=O)N2CCCC[C@H]2C(=O)O[C@H]([C@H](C)C[C@@H]2CC[C@@H](O)[C@H](OC)C2)CC(=O)[C@H](C)/C=C(\C)[C@@H](O)[C@@H](OC)C(=O)[C@H](C)C[C@H](C)/C=C/C=C/C=C/1C [rapamycin] | > 1 µM | 

More lines, now with the values behind:

Compound | EC50 ([1]; Neuron) | EC50 [3] | EC50 [2] | other results
CO[C@H]1C[C@@H]2CC[C@@H](C)[C@@](O)(O2)C(=O)C(=O)N2CCCC[C@H]2C(=O)O[C@H]([C@H](C)C[C@@H]2CC[C@@H](OC(=O)C(C)(CO)CO)[C@H](OC)C2)CC(=O)[C@H](C)/C=C(\C)[C@@H](O)[C@@H](OC)C(=O)[C@H](C)C[C@H](C)/C=C/C=C/C=C/1C [CCI-779, reference compound] | > 1 µM |  | > 1 µM | 
CO[C@H]1C[C@@H]2CC[C@@H](C)[C@@](O)(O2)C(=O)C(=O)N2CCCC[C@H]2C(=O)O[C@H]([C@H](C)C[C@@H]2CC[C@@H](O)[C@H](OC)C2)CC(=O)[C@H](C)/C=C(\C)[C@@H](O)[C@@H](OC)C(=O)[C@H](C)C[C@H](C)[C@@H]2CC[C@H](/C=C/1C)ON2c1ccccc1 [Example 2, 9,27-dihydroxy-3-{2-[4-hydroxy-3-methoxycyclohexyl]-1-methylethyl}-10,21-dimethoxy-6,8,12,14,20,26-hexamethyl-37-phenyl-4,9,10,12,13,14,15,16,17,18,21,22,23,24,25,26,27,32,33,34,34a-henicosahydro-3H-23,27-epoxy-18,15-(epoxyimino)pyrido[2,1-c][1,4]oxazacyclohentriacontine-1,5,11,28,29(6H,31H)-pentone] |  | < 1 µM | < 1 µM | behavior deficit scoring (rats following pMCAO): statistically significant reduction
CO[C@H]1C[C@@H]2CC[C@@H](C)[C@@](O)(O2)C(=O)C(=O)N2CCCC[C@H]2C(=O)O[C@H]([C@H](C)C[C@@H]2CC[C@@H](O)[C@H](OC)C2)CC(=O)[C@H](C)/C=C(\C)[C@@H](O)[C@@H](OC)C(=O)[C@H](C)C[C@H](C)C2C=CC(/C=C/1C)ON2c1c(Cl)cccc1Cl [Example 3, 37-(2,6-dichlorophenyl)-9,27-dihydroxy-3-{2-[4-hydroxy-3-methoxycyclohexyl]-1-methylethyl}-10,21-dimethoxy-6,8,12,14,20,26-hexamethyl-4,9,10,12,13,14,15,18,21,22,23,24,25,26,27,32,33,34,34a-nonadecahydro-3H-23,27-epoxy-18,15-(epoxyimino)pyrido[2,1-c][1,4]oxazacyclohentriacontine-1,5,11,28,29(6H,31H)-pentone] |  | < 1 µM | < 1 µM | EC50 (human CD4+ T cells [4]): 0.2 to 4.9 µM; IC50 (human CD4+ T cells [5]; CD4+ T cells activated with anti-CD3/anti-CD28, re-stimulated with 1 ng/mL human IL-2, read-out: IC50, inhibition of IL-2 production): < 1 µM; IL-2 production compared with rapamycin and CCI-779 (human CD4+ T cells [5]; CD4+ T cells, IL-2 re-stimulation): commensurate
Rapamycin phenyltriazolinedione |  |  |  | EC50 [1]: < 1 µM

From patent US7795252B2, “Rapamycin analogues and the uses thereof in the treatment of neurological, proliferative, and inflammatory disorders” (Pfizer Inc., priority 2004, dated 2010)
